The source of these data is ChEMBL document CHEMBL5331058, “Review of bioactivity and structure-activity relationship on baicalein (5,6,7-trihydroxyflavone) and wogonin (5,7-dihydroxy-8-methoxyflavone) derivatives: Structural modifications inspired from flavonoids in Scutellaria baicalensis” (Eur J Med Chem, 2022).

As usually defined, the IC50 is the concentration needed to halve the response being measured. A word on the inhibition: it is the share of the control response that was lost under treatment. Usually EC50 stands for the concentration giving half of the maximal effect. By MIC is commonly meant the least concentration at which growth counts as inhibited. Broadly, the solubility is the concentration that dissolves in the medium under given conditions.

Converted amounts (≈) assume the structure as drawn. A value given as a limit tells only on which side of the number the result lay.

Series [1] addresses T1, Alpha glucosidase (Homo sapiens, UniProt O43451+P10253+P14410+Q2M2H8). The experiment in a line: Inhibition of alpha glucosidase (unknown origin). The class given is protein assay.
Series [2] addresses T2, Acetylcholinesterase (Homo sapiens, UniProt P22303). Kind of series: Inhibition of human AChE.
For series [3], the target named is Amyloid-beta precursor protein (Homo sapiens) (UniProt P05067). The experiment in a line: Inhibition of self-induced amyloid beta (unknown origin) aggregation relative to control. The following applies: concentration not given here.
Chain of Amyloid-beta precursor protein (Homo sapiens) (P05067 whole entry): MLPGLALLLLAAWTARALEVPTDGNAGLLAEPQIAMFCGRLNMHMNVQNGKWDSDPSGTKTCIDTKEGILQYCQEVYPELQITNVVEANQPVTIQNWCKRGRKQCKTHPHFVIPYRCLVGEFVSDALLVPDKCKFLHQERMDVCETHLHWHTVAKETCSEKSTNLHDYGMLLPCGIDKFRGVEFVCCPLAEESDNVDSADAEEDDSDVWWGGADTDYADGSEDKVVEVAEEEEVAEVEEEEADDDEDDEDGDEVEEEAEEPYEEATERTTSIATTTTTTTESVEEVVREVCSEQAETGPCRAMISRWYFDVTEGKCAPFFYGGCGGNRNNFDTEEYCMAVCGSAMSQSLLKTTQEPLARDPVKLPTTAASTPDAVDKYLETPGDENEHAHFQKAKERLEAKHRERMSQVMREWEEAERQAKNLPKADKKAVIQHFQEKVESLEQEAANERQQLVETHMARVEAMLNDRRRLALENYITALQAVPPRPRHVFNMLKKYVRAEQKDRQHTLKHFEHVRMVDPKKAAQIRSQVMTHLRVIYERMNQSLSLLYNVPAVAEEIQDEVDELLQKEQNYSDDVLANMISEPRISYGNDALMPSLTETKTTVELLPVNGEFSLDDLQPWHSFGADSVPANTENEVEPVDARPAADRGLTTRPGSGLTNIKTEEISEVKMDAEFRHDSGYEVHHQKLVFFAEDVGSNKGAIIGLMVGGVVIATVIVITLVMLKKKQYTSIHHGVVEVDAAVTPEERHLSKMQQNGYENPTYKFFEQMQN
Series [4] has the same target. Kind of series: Disaggregation of Cu2+ induced amyloid beta (unknown origin) fibrils relative to control.
The target of series [5] is Acetylcholinesterase (Electrophorus electricus, UniProt O42275). The experiment in a line: Inhibition of electric eel AChE.
Chain of Acetylcholinesterase (Electrophorus electricus, UniProt O42275) (O42275 whole entry): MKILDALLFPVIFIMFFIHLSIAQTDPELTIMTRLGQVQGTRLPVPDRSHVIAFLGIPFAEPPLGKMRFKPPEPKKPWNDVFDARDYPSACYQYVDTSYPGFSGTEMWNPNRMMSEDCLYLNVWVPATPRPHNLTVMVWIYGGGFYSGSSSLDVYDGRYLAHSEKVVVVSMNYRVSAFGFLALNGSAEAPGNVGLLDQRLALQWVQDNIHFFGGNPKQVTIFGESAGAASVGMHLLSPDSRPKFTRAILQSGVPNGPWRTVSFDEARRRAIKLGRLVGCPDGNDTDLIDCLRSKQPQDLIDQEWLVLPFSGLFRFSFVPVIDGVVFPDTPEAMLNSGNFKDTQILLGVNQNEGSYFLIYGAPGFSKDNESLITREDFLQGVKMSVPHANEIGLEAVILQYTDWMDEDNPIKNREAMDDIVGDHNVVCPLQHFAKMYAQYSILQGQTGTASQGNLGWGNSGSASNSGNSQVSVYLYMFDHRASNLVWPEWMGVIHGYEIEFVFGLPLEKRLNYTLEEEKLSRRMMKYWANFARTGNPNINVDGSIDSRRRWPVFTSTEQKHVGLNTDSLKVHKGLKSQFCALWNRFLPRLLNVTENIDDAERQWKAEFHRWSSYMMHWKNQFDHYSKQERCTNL
Series [6] concerns the target Amyloid-beta precursor protein (Homo sapiens) (UniProt P05067). The experiment in a line: Inhibition of Cu2+ induced amyloid beta (unknown origin) aggregation relative to control. The settings on record: concentration not given here.
For series [7] the target is unchanged. The experiment in a line: Disaggregation of self-induced amyloid beta (unknown origin) fibrils relative to control.
In series [8] the target is T2, Acetylcholinesterase. The experiment in a line: Inhibition of AChE (unknown origin).
Series [9] concerns SH-SY5Y. The experiment in a line: Neuroprotective activity against H2O2-induced cell damage in human SH-SY5Y cells assessed as reduction in cell viability preincubated for 36 hrs followed by H2O2 addition and measured after 12 hrs by MTT assay. The class given is functional, cell-based. On the technique in general: Tetrazolium dyes change colour on reduction, which living cells bring about.

For series [10], the system named is SH-SY5Y. Kind of series: Neuroprotective activity against H2O2-induced cell damage in human SH-SY5Y cells assessed as cell viability preincubated for 36 hrs followed by H2O2 addition and measured after 12 hrs by MTT assay. The class given is functional, cell-based.
The next series concerns Influenza A virus. Kind of series: Antiviral activity against influenza A virus H1N1 infected in MDCK cells assessed as reduction in virus induced cytopathic effect by CPE assay. The class given is functional, organism-based. On the technique in general: Cytopathic effects are the visible damage that an infection or toxin causes in cultured cells.
For series [11], the target named is Thymic stromal lymphopoietin (Homo sapiens) (UniProt Q969D9). The experiment in a line: Inhibition of N-terminal FLAG tagged/C-terminal 6 His tagged human TSLP at 1 uM preincubated for 2 hrs followed by compound addition and measured after 18 hrs by ELISA method relative to control. The settings on record: time 20.0 hrs.
Chain of Thymic stromal lymphopoietin (Homo sapiens) (Q969D9 whole entry): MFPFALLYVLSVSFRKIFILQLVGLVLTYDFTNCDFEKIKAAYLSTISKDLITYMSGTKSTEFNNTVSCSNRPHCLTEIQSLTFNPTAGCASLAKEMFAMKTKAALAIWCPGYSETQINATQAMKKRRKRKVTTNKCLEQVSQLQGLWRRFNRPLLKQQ
Another series relates to HGC-27. The experiment in a line: Antiproliferative activity against human HGC-27 cells assessed as reduction in cell viability incubated for 48 hrs by MTT assay. The class given is functional, cell-based. The following applies: HGC-27, 48 h.
For another series, the system named is MGC-803. The experiment in a line: Antiproliferative activity against human MGC-803 cells assessed as reduction in cell viability incubated for 48 hrs by MTT assay. The class given is functional, cell-based. The following applies: MGC-803, 48 h.
The next series relates to Escherichia coli. The experiment in a line: Antibacterial activity against Escherichia coli assessed as bacterial growth inhibition. The class given is functional.
Another series concerns Candida albicans. Kind of series: Antifungal activity against Candida albicans assessed as reduction in fungal growth incubated for 16 hrs by microdilution method. The class given is functional.
Another series concerns Staphylococcus aureus. Kind of series: Antibacterial activity against Staphylococcus aureus assessed as bacterial growth inhibition incubated for 16 hrs. The class given is functional.
The next series has as its target Butyrylcholinesterase (Rattus norvegicus, UniProt Q9JKC1). The experiment in a line: Inhibition of rat serum homogenate BuChE preincubated for 5 mins followed by compound addition and measured after 15 mins by Ellman's method. The series is classed as cell-free. (In general: DTNB colorimetry detects thiols as they appear.)
Series [12] has as its target T3, Acetylcholinesterase (Rattus norvegicus, UniProt P37136).
T3 sequence (P37136 whole entry): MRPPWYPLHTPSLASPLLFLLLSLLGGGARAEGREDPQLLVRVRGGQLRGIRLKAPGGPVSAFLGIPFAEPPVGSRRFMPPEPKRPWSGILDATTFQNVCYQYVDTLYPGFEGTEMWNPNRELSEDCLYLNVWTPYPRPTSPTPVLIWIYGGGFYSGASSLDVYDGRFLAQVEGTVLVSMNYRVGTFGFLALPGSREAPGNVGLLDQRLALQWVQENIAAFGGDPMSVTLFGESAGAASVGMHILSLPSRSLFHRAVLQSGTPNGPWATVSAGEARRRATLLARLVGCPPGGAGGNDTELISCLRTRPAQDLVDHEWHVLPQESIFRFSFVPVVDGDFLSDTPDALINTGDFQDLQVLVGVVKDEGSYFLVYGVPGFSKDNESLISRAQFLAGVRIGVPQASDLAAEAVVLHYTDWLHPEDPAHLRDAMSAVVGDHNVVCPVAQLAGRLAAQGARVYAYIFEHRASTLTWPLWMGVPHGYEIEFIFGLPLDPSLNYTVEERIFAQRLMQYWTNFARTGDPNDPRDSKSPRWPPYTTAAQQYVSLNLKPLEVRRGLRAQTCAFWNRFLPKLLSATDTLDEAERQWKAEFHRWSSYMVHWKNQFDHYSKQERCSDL
Kind of series: Inhibition of rat cortex homogenate AChE preincubated for 5 mins followed by compound addition and measured after 15 mins by Ellman's method.

Series [13] is described as follows: Permeability of the compound across blood brain barrier at pH 7.4 incubated for 4 hrs by parallel artificial membrane permeation assay. The settings on record: pampa, pH 7.4, 4 h. The series is classed as ADME.
Series [14] concerns the target T2, Acetylcholinesterase. The experiment in a line: Inhibition of human AChE by Ellman's spectrophotometric method.
In the next series the test system is DU-145. The experiment in a line: Anticancer activity against human DU-145 cells assessed as inhibition of cell growth at 100 uM by colorimetric MTT assay relative to control. The class given is functional. Details: scale not given: the % may be the effect or the level left.
The next series deals with HepG2. Kind of series: Antitumor activity against human HepG2 cells assessed as reduction in cell viability at 25 uM by colorimetric MTT assay relative to control. The class given is functional.
Series [15] has as its target T1, Alpha glucosidase. The experiment in a line: Inhibition of alpha glucosidase (unknown origin) spectrophotometric analysis. The class given is protein assay.
Series [16] deals with PC-12. The experiment in a line: Antioxidant activity in H2O2-induced cell damage in rat PC12 cells at 50 uM. The class given is functional.
For series [17], the system named is PC-12. Kind of series: Cytotoxicity against H2O2-induced cell damage in rat PC12 cells assessed as reduction in cell viability at 50 uM incubated for 24 hrs by MTT assay relative to control. The class given is functional.
Series [18] in a line: Antioxidant activity assessed as DPPH radical scavenging activity. The series is classed as functional.
The nature of series [19]: Aqueous solubility of compound by UV spectroscopy method. The settings on record: water. The series is classed as physicochemical.

T2 sequence (P22303 whole entry): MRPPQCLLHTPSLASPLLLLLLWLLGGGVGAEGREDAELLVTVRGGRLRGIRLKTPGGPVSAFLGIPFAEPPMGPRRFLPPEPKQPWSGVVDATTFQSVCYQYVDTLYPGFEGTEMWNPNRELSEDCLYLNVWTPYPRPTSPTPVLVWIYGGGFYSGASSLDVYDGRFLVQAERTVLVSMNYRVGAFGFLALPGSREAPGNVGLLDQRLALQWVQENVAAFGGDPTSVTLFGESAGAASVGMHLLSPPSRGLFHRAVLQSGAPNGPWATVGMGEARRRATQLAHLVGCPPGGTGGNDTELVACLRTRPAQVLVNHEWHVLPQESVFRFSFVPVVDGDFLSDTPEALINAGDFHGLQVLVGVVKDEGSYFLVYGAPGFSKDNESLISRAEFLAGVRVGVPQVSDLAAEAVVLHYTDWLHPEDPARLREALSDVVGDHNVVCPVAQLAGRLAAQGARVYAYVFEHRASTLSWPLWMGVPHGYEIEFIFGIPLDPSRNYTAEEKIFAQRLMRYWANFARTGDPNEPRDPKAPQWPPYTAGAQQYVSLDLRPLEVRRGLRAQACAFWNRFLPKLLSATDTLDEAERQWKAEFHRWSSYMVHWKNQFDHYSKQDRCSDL
Chain of Butyrylcholinesterase (Q9JKC1 whole entry): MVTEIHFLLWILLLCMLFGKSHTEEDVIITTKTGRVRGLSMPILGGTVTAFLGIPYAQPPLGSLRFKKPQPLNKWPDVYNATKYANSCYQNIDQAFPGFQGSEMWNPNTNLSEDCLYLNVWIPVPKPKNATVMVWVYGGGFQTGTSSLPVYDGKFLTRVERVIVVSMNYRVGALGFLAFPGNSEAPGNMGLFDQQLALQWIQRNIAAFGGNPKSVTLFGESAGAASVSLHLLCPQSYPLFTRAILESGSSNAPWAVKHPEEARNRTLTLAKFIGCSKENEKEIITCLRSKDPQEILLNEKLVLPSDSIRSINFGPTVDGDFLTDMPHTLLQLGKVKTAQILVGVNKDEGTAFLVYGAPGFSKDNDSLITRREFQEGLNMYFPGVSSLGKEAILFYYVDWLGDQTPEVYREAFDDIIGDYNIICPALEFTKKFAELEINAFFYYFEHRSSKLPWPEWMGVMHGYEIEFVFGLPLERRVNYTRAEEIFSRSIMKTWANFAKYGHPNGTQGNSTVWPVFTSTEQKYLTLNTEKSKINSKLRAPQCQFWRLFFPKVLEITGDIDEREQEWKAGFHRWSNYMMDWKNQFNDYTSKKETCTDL

With `CC(c1cc(O)c2c(=O)cc(-c3ccccc3)oc2c1)c1ccc(O)cc1O` (stereo not given), the half-maximal inhibitory concentration (IC50) against Alpha glucosidase [1] worked out at 44.11 µM. As for `CCN(C)C(=O)Oc1ccc(-c2cc(=O)c3c(O)c(O)c(OC(=O)N[C@@H](Cc4ccccc4)C(=O)OC(C)(C)C)cc3o2)cc1`, the IC50 on Acetylcholinesterase [2] came to 7.91 µM; against Acetylcholinesterase [5], 6.01 µM; against Acetylcholinesterase [8], 4.73 µM. Also, the values for the inhibition in [3] and in [6] were 89.2% and 86.2%, respectively. The Activity in series [4] is 78.7%; in series [7] it was 84.2%. Take `O=C(NC(Cc1ccccc1)C(=O)Oc1c(O)cc2oc(-c3ccccc3)cc(=O)c2c1O)OCc1ccccc1` (stereo not given): the EC50 turned out to be 24.8 µM in the series on SH-SY5Y [9] and 4.31 µM in the series on SH-SY5Y [10]. With `COc1c(O)cc2oc(-c3ccccc3Br)cc(=O)c2c1O`, in the series on Influenza A virus, the EC50 was 4 µM. `O=c1cc(-c2cccc(-c3ccc(O)cc3)c2)oc2cc(O)cc(O)c12` came in with an inhibition in series [11] of 77.5%. With `COC(=O)c1cc(Br)ccc1OCCCOc1ccc(-c2cc(=O)c3c(OC)c(OC)c(OC)cc3o2)cc1`, the IC50 with HGC-27 came to 10.3 µM; with MGC-803, 17.2 µM.

For `COc1c(O)cc2oc(-c3cccc(Br)c3)cc(=O)c2c1O`, in the series with Influenza A virus, the EC50 is 4.5 µM. As for `CC(C)=CCCC(C)CCOC(=O)[C@H]1O[C@@H](Oc2cc3oc(-c4ccccc4)cc(=O)c3c(O)c2O)[C@H](O)[C@@H](O)[C@@H]1O` (stereo not given in full), the MIC turned out to be 3200 µM (≈ 1870 µg/mL) in the series with Escherichia coli, 400 µM (≈ 234 µg/mL) in the series with Candida albicans and 800 µM (≈ 468 µg/mL) with Staphylococcus aureus.

For the compound `CCN(CC)C(=O)Oc1ccc(-c2cc(=O)c3c(O)c(OC)c(OC)cc3o2)cc1`, the figures for the 50% inhibitory concentration (IC50) at Butyrylcholinesterase and against Acetylcholinesterase [12] were 22.1 µM and 1.2 µM, respectively. `CN1C(=O)[C@@H](Cc2ccc(NC(=O)[C@H]3O[C@@H](Oc4cc5oc(-c6ccccc6)cc(=O)c5c(O)c4O)[C@H](O)[C@@H](O)[C@@H]3O)cc2)NC(=O)[C@H]1Cc1ccc2ccccc2c1` registered a BBB in series [13] of 7.22%. On Acetylcholinesterase [14], `COc1cc2oc(-c3ccc(NCCNc4c5c(nc6cc(Cl)ccc46)CCCC5)cc3)cc(=O)c2c(OC)c1OC` showed an IC50 of 4.73 µM. Consider `COc1cc2oc(-c3ccc(N)cc3)cc(=O)c2c(OC)c1OC`, for which the Activity is on record as 60% in the series with DU-145 and less than 2% in the series with HepG2. Compound `CCN(CCCCOc1ccc(-c2cc(=O)c3c(O)c(OC)c(OC)cc3o2)cc1)Cc1ccccc1OC` displayed an IC50 against Alpha glucosidase [15] of 25.78 µM. For `COc1c(C(C)c2ccc(O)cc2O)cc2oc(-c3ccccc3)cc(=O)c2c1O` (stereo not given), the IC50 against Alpha glucosidase [1] was found to be 39.21 µM. With `CC(C)N(CCOc1c(O)cc2oc(-c3ccc(O)cc3)cc(=O)c2c1O)C(C)C`, the Activity in the series on PC-12 [16] was determined as 72.12%. Consider `COc1c(O)cc2oc(-c3ccc(O)cc3)cc(=O)c2c1O` [HISPIDULIN], for which the inhibition at 50 µM in the series on PC-12 [17] stood at 94.2%. In series [18], the IC50 was found to be 19.3 µM. In series [19], this compound displayed a solubility of 0.0153 mg/mL (≈ 51.1 µM).
